Data as given in US7846956B2, “Malononitrile compound as pesticides” (Sumitomo Chemical Company, Limited, priority 2004, dated 2010).
Read-outs that look alike come from different tables or passages of the source.

Experiments:
Assay type in all cases: in vivo
Musca domestics = assay: Experimental Example 3: filter paper test with sucrose bait, death rate of Musca domestics; settings: read-out: death rate of the pest
Description: Preparations of the present compounds (1), (2), (3), (4), (5), (6), (8), (9), (10), (11), (12), (13), (14), (15), (16), (17), (18), (19), (21), (22), (23), (24), (25), (26), (27), (31), (34), (35), (36), (37), (38), (39), (40), (42), (47), (50), (52), (54), (66), (67) and (68) obtained according to Formulation Example 5 were diluted with water so that the active ingredient concentration was 500 ppm to prepare experimental pesticidal solutions.
A filter paper having a diameter of 5.5 cm was spread on the bottom of a polyethylene cup having a diameter of 5.5 cm and 0.7 ml of the experimental pesticidal solution was added dropwise onto the filter paper. As a bait 30 mg of sucrose was uniformly placed on the filter paper. Into the polyethylene cup, 10 female Musca domestics imagoes were released and the cup was sealed with a lid. After 24 hours, the number of surviving Musca domestics was examined and the death rate of the pest was calculated.

Culex pipiens pallens = assay: Experimental Example 5: larvae in treated water, death rate of Culex pipiens pallens; settings: 24 h, read-out: death rate of the pest
Description: Preparations of the present compounds (1), (2), (4), (5), (6), (8), (9), (11), (12), (13), (14), (15), (16), (17), (18), (19), (21), (22), (23), (24), (25), (26), (27), (31), (33), (34), (35), (36), (37), (38), (39), (40), (42), (43), (47), (48), (50), (52), (53), (54), (62), (64), (65), (66), (67), (68) and (70) obtained according to Formulation Example 5 were diluted with water so that the active ingredient concentration was 500 ppm to prepare experimental pesticidal solutions.
0.7 ml of the experimental pesticidal solution was added to 100 mL of ion-exchanged water (active ingredient concentration: 3.5 ppm). Into the solution, 20 last-instar larvae of Culex pipiens pallens were released. After one day, the surviving number was examined and the death rate of the pest was calculated.

Blattalla germanica = assay: Experimental Example 4: filter paper test with sucrose bait, death rate of Blattalla germanica; settings: 144 h; 500 ppm active ingredient, 0.7 ml on filter paper; two male imagoes; after 6 days
Description: Preparations of the present compounds (2), (4), (5), (6), (8), (9), (11), (12), (13), (15), (17), (18), (19), (21), (24), (25), (26), (27), (35), (36), (37), (38), (40), (41), (42), (47), (50), (52), (54), (62), (64), (65), (66) and (68) obtained according to Formulation Example 5 were diluted with water so that the active ingredient concentration was 500 ppm to prepare experimental pesticidal solutions.
A filter paper having a diameter of 5.5 cm was spread on the bottom of a polyethylene cup having a diameter of 5.5 cm and 0.7 ml of the experimental pesticidal solution was added dropwise onto the filter paper. As a bait 30 mg of sucrose was uniformly placed on the filter paper. Into the polyethylene cup, two male Blattalla gexmanica images were released and the cup was sealed with a lid. After 6 days, the number of surviving Blattalla germanica was examined and the death rate of the pest was calculated.

[1] = 500 ppm active ingredient, 0.7 ml on filter paper, 10 female imagoes, after 24 hours
[2] = active ingredient concentration 3.5 ppm in water, 20 last-instar larvae, after one day

Structure (SMILES)	pest or weed control at 500 ppm (Musca domestics; [1]) [%]	pest or weed control at 3.5 ppm (Culex pipiens pallens; [2]) [%]	pest or weed control at 500 ppm (Blattalla germanica) [%]	pest or weed control at 500 ppm (Musca domestics; 24 h) [%]	pest or weed control at 3.5 ppm (Culex pipiens pallens) [%]
CC(C)(C)c1cc(CC(C#N)(C#N)CCC(F)(F)F)[nH]n1 [present compound (1)]	≥ 90	≥ 95			
Cn1nc(C(C)(C)C)cc1CC(C#N)(C#N)CCC(F)(F)F [present compound (2)]	≥ 90	≥ 95	100		
CC(C)(C)c1cc(CC(C#N)(C#N)CCC(F)(F)F)n(CC(F)(F)F)n1 [present compound (3)]	≥ 90				
CC(C)(C)c1cc(CC(C#N)(C#N)CCC(F)(F)F)on1 [present compound (4)]	≥ 90	≥ 95	100		
CC(C)(C)c1cc(CC(C#N)(C#N)CCC(F)(F)F)sn1 [present compound (5)]	≥ 90	≥ 95	100		
CC(C)(C)c1cc(CC(C#N)(C#N)CCC(F)(F)F)no1 [present compound (6)]	≥ 90	≥ 95	100		
N#CC(C#N)(CCC(F)(F)F)Cc1cnn(Cc2ccccc2)c1 [present compound (8)]	≥ 90	≥ 95	100		
CC(C)(C)c1nc(CC(C#N)(C#N)CCC(F)(F)F)co1 [present compound (9)]	≥ 90	≥ 95	100		
N#CC(C#N)(CCC(F)(F)F)Cc1cscn1 [present compound (10)]	≥ 90				
Cc1nc(CC(C#N)(C#N)CCC(F)(F)F)cs1 [present compound (11)]	≥ 90	≥ 95	100		
CC(C)(C)c1nc(CC(C#N)(C#N)CCC(F)(F)F)cs1 [present compound (12)]	≥ 90	≥ 95	100		
N#CC(C#N)(CCC(F)(F)F)Cc1csc(Cl)n1 [present compound (13)]	≥ 90	≥ 95	100		
C#CCOc1nc(CC(C#N)(C#N)CCC(F)(F)F)cs1 [present compound (14)]	≥ 90	≥ 95			
Cc1ncc(CC(C#N)(C#N)CCC(F)(F)F)s1 [present compound (15)]	≥ 90	≥ 95	100		
CCc1ncc(CC(C#N)(C#N)CCC(F)(F)F)s1 [present compound (16)]	≥ 90	≥ 95			
CC(C)(C)c1ncc(CC(C#N)(C#N)CCC(F)(F)F)s1 [present compound (17)]	≥ 90	≥ 95	100		
N#CC(C#N)(CCC(F)(F)F)Cc1cnc(Cl)s1 [present compound (18)]	≥ 90	≥ 95	100		
C#CCOc1ncc(CC(C#N)(C#N)CCC(F)(F)F)s1 [present compound (19)]	≥ 90	≥ 95	100		
CC(C)(C)c1nsc(CC(C#N)(C#N)CCC(F)(F)F)n1 [present compound (21)]	≥ 90	≥ 95	100		

Structure (SMILES)	pest or weed control at 500 ppm (Musca domestics; [1]) [%]	pest or weed control at 3.5 ppm (Culex pipiens pallens; [2]) [%]	pest or weed control at 500 ppm (Blattalla germanica) [%]	pest or weed control at 500 ppm (Musca domestics; 24 h) [%]	pest or weed control at 3.5 ppm (Culex pipiens pallens) [%]
CC(C)(C)c1nnc(CC(C#N)(C#N)CCC(F)(F)F)o1 [present compound (22)]	≥ 90	≥ 95			
CCc1nc(CC(C#N)(C#N)CCC(F)(F)F)no1 [present compound (23)]	≥ 90	≥ 95			
CC(C)(C)c1nc(CC(C#N)(C#N)CCC(F)(F)F)no1 [present compound (24)]	≥ 90	≥ 95	100		
CC1(c2nc(CC(C#N)(C#N)CCC(F)(F)F)no2)CC1 [present compound (25)]	≥ 90	≥ 95	100		
CC(C)(C)Cc1nc(CC(C#N)(C#N)CCC(F)(F)F)no1 [present compound (26)]	≥ 90	≥ 95	100		
C#CCn1cc(CC(C#N)(C#N)CCC(F)(F)F)cn1 [present compound (31)]	≥ 90	≥ 95			
CC(C)(C)n1cc(CC(C#N)(C#N)C2C=CCCC2)cn1 (centres unmarked) [present compound (33)]		≥ 95			
CC(C)(C)n1ncc(CC(C#N)(C#N)CCC(F)(F)F)c1-n1cccc1 [present compound (34)]	≥ 90	≥ 95			
N#CC(C#N)(CCC(F)(F)F)Cc1cc(C(F)(F)C(F)(F)C(F)(F)F)on1 [present compound (39)]				≥ 90	≥ 95
CC(C)c1cc(C(C)C(C#N)(C#N)CCC(F)(F)F)no1 (centres unmarked) [present compound (41)]			100		
CC(C)(C)[Si](C)(C)OCc1cc(CC(C#N)(C#N)CCC(F)(F)F)no1 [present compound (43), [(5-(t-butyldimethylsilanyloxymethyl)isoxazol-3-yl)methyl](3,3,3-trifluoropropyl)malononitrile]					≥ 95
CC(O[Si](C)(C)C(C)(C)C)c1cc(CC(C#N)(C#N)CCC(F)(F)F)no1 (centres unmarked) [present compound (48)]					≥ 95
CC(C)(O)c1cc(CC(C#N)(C#N)CCC(F)(F)F)no1 [present compound (53)]		≥ 95			
CC(c1cc(C(C)(C)O)on1)C(C#N)(C#N)CCC(F)(F)F (centres unmarked) [present compound (62)]		≥ 95	100		
CCC(c1cc(C(C)(C)O)on1)C(C#N)(C#N)CCC(F)(F)F (centres unmarked) [present compound (64)]		≥ 95	100		
CC(C)C(c1cc(C(C)(C)O)on1)C(C#N)(C#N)CCC(F)(F)F (centres unmarked) [present compound (65)]		≥ 95	100		
C#CCOC(C)(C)c1cc(CC(C#N)(C#N)CCC(F)(F)F)no1 [present compound (67)]	≥ 90	≥ 95			
CC[S+]([O-])c1ncc(CC(C#N)(C#N)CCC(F)(F)F)n1C (centres unmarked) [present compound (70)]		≥ 95			
